This note sets out measurements from US20250049791A1, “Synthesis of MEK7 Inhibitors and methods of Use Thereof” (Northwestern University, priority 2023, published 2025).

Series [1] relates to JNK and ATF2 phosphorylation in T-ALL cells. Description: Immunoblot analysis of JNK and ATF2 phosphorylation. In kind it is cell-based. The method, then: Cells were lysed with SDS lysis buffer containing (10 mM Tris pH 7.4 containing 1% SDS and 1 mM PMSF) and supplemented with Halt Protease and Phosphatase Inhibitor Cocktail (ThermoFisher) after 24 h of incubation. Protein lysates were electrophoresed onto SDS PAGE gel and transferred to the PVDF membrane using the iBLOT system. Antibodies phospho-SAPK/JNK (clone 81E11) (#4668) and SAPK/JNK (#9252) were used at 1:5000 dilution. Secondary antibodies cross-linked with HRP (anti-rabbit IgG #7074 and anti-mouse IgG #7076) were used for respective primary antibodies at concentrations 1:20,000. Protein detection was performed using West Femto Maximum Sensitivity Substrate (ThermoFisher) and Amersham Hyperfilm ECL (GE).
For orientation: Immunoblotting shows a protein as a band on a membrane.

Series [2] concerns the target T1, EGFR (Homo sapiens, UniProt P00533).
T1 construct: purchased DiscoverX (Eurofins)
Briefly: ScanEDGE competition binding, EGFR. The following applies: at 1 μM; b168 prints 1 M. An excerpt:
(§1) The ScanEDGE assay, completed by DiscoverX (Eurofins) is a proprietary active site-directed competition binding assay. Compounds that bind the kinase active site prevent kinase binding to the immobilized ligand, reducing the amount of kinase captured on the solid support. Hits are identified by measuring the amount of kinase captured in experimental vs, control samples by a qPCR method that detects an associated DNA label. According to data provided by Eurofins, a typical hit at 5-10% of control signal in a 1 μM assay as shown above is generally associated with a KD in the range of 100-1,000 nM. Readings with greater than 35% of control signal correspond to exceeding large dissociation constants.

Series [3] addresses T2, EGFR (L858R) mutant (Homo sapiens, UniProt P00533, L858R).
T2 construct: purchased DiscoverX (Eurofins)
Description: ScanEDGE competition binding, EGFR (L858R). Details: dose or concentration left out as unconfirmed.
Text: as §1

Series [4] concerns p38α/β. Briefly: ScanEDGE competition binding, p38α/β. The following applies: ScanEDGE screen.
Text: as §1

Series [5] has as its system T-ALL cell lines (JURKAT, KOPT-K1, RPMI-8402, ALL-SIL). Briefly: Cytotoxicity assay (CellTiter-Glo), T-ALL cell lines. Type of series: cell-based. The following applies: 48 hours. On the technique in general: ATP-based viability assays read luminescence as a measure of living cells.
For series [6], the target named is T3, recombinant active full-length human MEK7 (Homo sapiens, UniProt O14733).
T3 construct: recombinant active full-length human MEK7 (Carna Biosciences); purchased Carna Biosciences
T3 sequence (O14733 1-419): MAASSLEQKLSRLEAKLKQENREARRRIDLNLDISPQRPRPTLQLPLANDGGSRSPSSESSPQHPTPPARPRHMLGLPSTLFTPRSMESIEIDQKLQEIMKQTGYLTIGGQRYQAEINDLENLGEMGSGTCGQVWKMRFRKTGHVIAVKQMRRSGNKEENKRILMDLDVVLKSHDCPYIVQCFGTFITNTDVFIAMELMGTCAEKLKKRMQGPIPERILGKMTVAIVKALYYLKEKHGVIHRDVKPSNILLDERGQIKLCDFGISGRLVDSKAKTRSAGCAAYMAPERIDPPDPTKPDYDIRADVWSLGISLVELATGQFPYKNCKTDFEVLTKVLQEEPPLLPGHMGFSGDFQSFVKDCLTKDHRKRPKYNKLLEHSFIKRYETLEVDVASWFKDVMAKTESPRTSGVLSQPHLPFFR
Briefly: ADP-Glo kinase activity assay, MEK7 with JNK1 substrate. Type of series: biochemical. How it is done:
Procedure for a 5 μL Kinase reaction using the ADP-Glo Kinase Assay Kit from Promega. Staurosporine was used as the positive control, and DMSO (vehicle) was employed as the negative control. Activity of recombinant active full-length human MEK7 (Carna Biosciences) was measured with recombinant full-length human substrate JNK1 (MAPK8). Using a Mantis, a mixture of MEK7 and JNK1 was dispensed into a 384-well low volume white Proxiplate. For each well, 4 ng of MEK7 and 600 ng of JNK1 in kinase buffer (CST) were used, accounting for 1 μL of this mixture per well. Inhibitor was prepared in a DMSO solution (40 mM). A dose-response dilution was performed in a 384-well Echo transfer plate. Using an Echo Access, 10 nL of each solution was dispensed into the same 384-well low volume white Proxiplate as above. This mixture was allowed to incubate for 30 minutes at room temperature. Using a Mantis, 1 uL of an 8 μM ATP solution was added to each well, and the plate was allowed to incubate for another 1 hour at room temperature. Using the Mantis again, 4 μL of ADP Glo Reagent was dispensed into each well, and the plate was allowed to incubate for 45 min at room temperature. Finally, 9 μL of Kinase Detection Reagent was added manually to each well, and the plate was allowed to incubate for 45 minutes at room temperature. Luminescence was read on a Synergy Neo2 Plate Reader with filter cubes 3 and 114. Integration time was set to 0.20 seconds, gain set to 160, and read height set at 6 mm. All experiments were performed in triplicate on the plate, and at least in one separate technical duplicate was performed.
MEK4 selectivity was performed in the same manner with activated MEK4 (Carna Biosciences). Here, p-38α was employed as the kinase substrate in lieu of JNK1 due to the availability of reagents. […] To probe the ATP-competitive nature of 25, this compound was subjected to a similar assay forgoing the 30 minute incubation time described above (STAR Protocols 2021, 2, 100717). The results are tabulated below in compound characterization. Potency determined by duplicate of triplicates corresponded to a IC50 value, which is in line with the ratio difference observed among other covalent inhibitors (for examples, see Cell Chem. Biol. 2020, 27, 1285).
In general terms: In ADP-Glo the light output rises with the ADP produced.

“Also recorded” adds a separate entry of the source. Read-outs that look alike come from different tables or passages of the source.

One may read the IC50 as the point on the concentration scale where inhibition reaches its midpoint.

T1 sequence (P00533 25-1210): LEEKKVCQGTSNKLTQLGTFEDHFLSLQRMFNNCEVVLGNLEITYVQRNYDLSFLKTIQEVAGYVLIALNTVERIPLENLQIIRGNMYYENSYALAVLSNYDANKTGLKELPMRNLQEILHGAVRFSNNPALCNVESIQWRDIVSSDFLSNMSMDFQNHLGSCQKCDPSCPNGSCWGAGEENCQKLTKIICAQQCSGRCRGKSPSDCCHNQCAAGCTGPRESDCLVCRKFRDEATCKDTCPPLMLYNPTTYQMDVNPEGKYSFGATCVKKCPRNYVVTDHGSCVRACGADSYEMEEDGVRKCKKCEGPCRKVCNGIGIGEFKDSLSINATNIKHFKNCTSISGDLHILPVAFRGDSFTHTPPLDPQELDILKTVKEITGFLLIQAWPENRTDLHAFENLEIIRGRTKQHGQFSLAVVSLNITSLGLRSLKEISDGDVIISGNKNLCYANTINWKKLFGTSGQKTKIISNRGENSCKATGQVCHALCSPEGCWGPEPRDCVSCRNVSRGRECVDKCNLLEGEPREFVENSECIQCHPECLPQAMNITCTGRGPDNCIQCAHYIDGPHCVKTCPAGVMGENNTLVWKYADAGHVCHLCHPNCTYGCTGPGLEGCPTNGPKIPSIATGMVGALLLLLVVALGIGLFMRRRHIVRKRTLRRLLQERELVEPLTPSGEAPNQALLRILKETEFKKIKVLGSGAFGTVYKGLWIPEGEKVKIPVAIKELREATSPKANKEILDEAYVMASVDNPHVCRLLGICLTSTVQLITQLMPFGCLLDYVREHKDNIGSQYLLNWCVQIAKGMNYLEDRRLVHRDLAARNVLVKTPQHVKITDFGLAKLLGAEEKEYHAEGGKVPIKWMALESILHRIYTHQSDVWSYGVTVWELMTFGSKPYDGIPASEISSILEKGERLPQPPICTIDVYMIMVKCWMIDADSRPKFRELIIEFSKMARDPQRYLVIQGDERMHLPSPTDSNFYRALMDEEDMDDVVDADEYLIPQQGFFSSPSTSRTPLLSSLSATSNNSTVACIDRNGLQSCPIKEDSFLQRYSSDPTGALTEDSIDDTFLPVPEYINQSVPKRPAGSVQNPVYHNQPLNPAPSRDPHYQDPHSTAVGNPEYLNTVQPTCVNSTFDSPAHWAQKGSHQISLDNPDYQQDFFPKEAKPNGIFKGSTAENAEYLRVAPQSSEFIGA
T2 sequence (P00533 25-1210 L858R): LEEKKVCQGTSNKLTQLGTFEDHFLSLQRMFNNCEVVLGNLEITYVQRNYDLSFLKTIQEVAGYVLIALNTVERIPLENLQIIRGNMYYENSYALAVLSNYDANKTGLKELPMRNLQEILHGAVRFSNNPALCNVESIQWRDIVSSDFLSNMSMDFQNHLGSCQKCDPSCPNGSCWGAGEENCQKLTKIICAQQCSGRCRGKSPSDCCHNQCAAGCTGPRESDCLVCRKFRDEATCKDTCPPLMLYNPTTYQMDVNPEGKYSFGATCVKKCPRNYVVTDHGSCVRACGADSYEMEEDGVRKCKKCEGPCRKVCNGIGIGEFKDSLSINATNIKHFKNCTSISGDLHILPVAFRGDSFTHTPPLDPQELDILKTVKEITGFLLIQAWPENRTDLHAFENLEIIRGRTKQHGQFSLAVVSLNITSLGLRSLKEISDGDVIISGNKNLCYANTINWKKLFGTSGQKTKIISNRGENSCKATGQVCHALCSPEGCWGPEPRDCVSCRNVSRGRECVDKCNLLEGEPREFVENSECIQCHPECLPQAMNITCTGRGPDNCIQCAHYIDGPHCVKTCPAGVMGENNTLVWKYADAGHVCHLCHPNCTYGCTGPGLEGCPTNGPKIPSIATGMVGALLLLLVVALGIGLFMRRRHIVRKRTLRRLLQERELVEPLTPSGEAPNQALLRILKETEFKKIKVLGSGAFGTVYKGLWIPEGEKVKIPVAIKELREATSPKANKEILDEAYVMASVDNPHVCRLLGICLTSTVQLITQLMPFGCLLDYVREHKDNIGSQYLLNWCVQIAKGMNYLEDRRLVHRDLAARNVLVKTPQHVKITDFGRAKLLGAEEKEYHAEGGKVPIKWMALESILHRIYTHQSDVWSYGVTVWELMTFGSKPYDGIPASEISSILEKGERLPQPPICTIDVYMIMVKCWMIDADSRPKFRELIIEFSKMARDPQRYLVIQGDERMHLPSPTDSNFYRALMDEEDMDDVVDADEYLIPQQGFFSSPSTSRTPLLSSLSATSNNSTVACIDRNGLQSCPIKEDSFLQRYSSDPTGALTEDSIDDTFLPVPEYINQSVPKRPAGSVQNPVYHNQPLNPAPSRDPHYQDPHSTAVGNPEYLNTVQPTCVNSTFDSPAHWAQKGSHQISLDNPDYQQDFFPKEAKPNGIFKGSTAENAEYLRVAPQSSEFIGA

With `O=C(CCl)Nc1cccc(Oc2cc(NCc3ccccc3)ncn2)c1` [Compound 25, N-(3-((6-(benzylamino)pyrimidin-4-yl)oxy)phenyl)-2-chloroacetamide], the “concentration that potently attenuated JNK and ATF2 phosphorylation” value in series [1] (24 h incubation) was 5 to 10 µM. For the same molecule, the “effect on phosphorylation of JNK and ATF2” value in series [1] (western blot, dose-response) was “decreased phosphorylation”. Moreover, the “binding to EGFR” value in series [2] is reported as “interacted significantly; also recorded: appreciably bound”. Besides, the “binding to EGFR (L858R) mutant” value in series [3] is “interacted significantly”. Moreover, the “activity on p38α/β” value in series [4] is reported as “no appreciable activity”. In series [5], the dose-response cytotoxicity entry is reported as “marked cytotoxicity”. The 50% inhibitory concentration (IC50) in series [6] (30 min preincubation, read-out: MEK7 IC50) is 10 nM; in series [6] (MEK7 IC50, first experiment (IC50±SEM, n=3), 30 min preincubation, first value in brackets), 17 nM; in series [6] (MEK7 IC50, second experiment (IC50±SEM, n=3), 30 min preincubation, second value in brackets), below 1.4 nM; in series [6] (MEK7 IC50 without preincubation, first experiment (n=3), without preincubation, first value in brackets), 67 ± 21 nM; in series [6] (MEK7 IC50 without preincubation, second experiment (n=3), without preincubation, second value in brackets), 119 nM; in series [6] (without 30 min preincubation, overall value, read-out: MEK7 IC50 without preincubation), 93 nM. Moreover, the IC50 in series [6] (without preincubation, no unit printed, read-out: MEK7 IC50 without preincubation) was found to be 93 nM.
